Values of other authors, collected in patent US20140296155A1, “ANTI-STRETCH MARK SKIN CREAM AND METHOD FOR MAKING AND USING THEREOF” (priority 2011, published 2014).

System: Type 1 and Type 3 collagen

O=C1O[C@H]([C@@H](O)CO)C(O)=C1O [Vitamin C, Ascorbic Acid]
collagen formation over control levels: 3-4 fold
